Measurements as given in the supplement of paper PMC10307832.

Experiments:
Experiment in all cases: relative viability (nuclei count vs DMSO), 5 days (fraction); higher = more cells survive
[1] = test system: EMC-BAC-2
Method in brief: (§1)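 For relative viability, nuclei counts in treated wells were divided by those in vehicle wells. Lung cancer cell lines had been pin-tool dosed in 1536-well plates the day after seeding and cultured for 5 days, then fixed and stained in one step (final 0.05% Triton X-100, 1% formaldehyde, 1 ug/ml Hoechst) and imaged at 4×. Doses were one drug alone or a fixed anchor-drug dose plus five library-drug doses (not always all listed) in √10 steps, and values are duplicate-plate medians.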

[2] = test system: NCI-H727
Method in brief: as §1

[3] = test system: NCI-H661
Method in brief: as §1

[4] = test system: NCI-H1915
Method in brief: as §1

[5] = test system: H3255
Method in brief: as §1

[6] = test system: NCI-H2023
Method in brief: as §1

[7] = test system: SW 1573
Method in brief: as §1

[8] = test system: LCLC-97TM1
Method in brief: as §1

[9] = test system: NCI-H2347
Method in brief: as §1

[10] = test system: LXF-289
Method in brief: as §1

[11] = test system: EPLC-272H
Method in brief: as §1

`COc1cc2nccc(Oc3ccc(NC(=O)Nc4cc(C)on4)c(Cl)c3)c2cc1OC` [Tivozanib] + COc1cc2c(Oc3ccc(NC(=O)C4(C(=O)Nc5ccc(F)cc5)CC4)cc3F)ccnc2cc1OCCCN1CCOCC1 [Foretinib] (partner 0.25 µM) showed a relative viability ([1]; first compound 0.005 µM) of 1.03, a relative viability ([1]; first compound 0.01581 µM) of 0.952 and a relative viability ([1]; first compound 0.05 µM) of 1.03. For the same molecule, the relative viability ([1]; first compound 0.1581 µM) was 0.952, the relative viability ([1]; first compound 0.5 µM) was 1.07 and the relative viability ([2]; first compound 0.005 µM) was 0.963. For the same molecule, the relative viability ([2]; first compound 0.01581 µM) was 1.04, the relative viability ([2]; first compound 0.05 µM) was 1.32 and the relative viability ([2]; first compound 0.1581 µM) was 0.853. For the same molecule, the relative viability ([2]; first compound 0.5 µM) was 0.89, the relative viability ([3]; first compound 0.005 µM) was 1 and the relative viability ([3]; first compound 0.01581 µM) was 0.997. The relative viability ([3]; first compound 0.05 µM) was 1.03, the relative viability ([3]; first compound 0.1581 µM) was 0.806 and the relative viability ([3]; first compound 0.5 µM) was 0.987. For the same molecule, the relative viability ([4]; first compound 0.005 µM) was 1.08, the relative viability ([4]; first compound 0.01581 µM) was 1.07 and the relative viability ([4]; first compound 0.05 µM) was 1.1. It also gave a relative viability ([4]; first compound 0.1581 µM) of 1.13, a relative viability ([4]; first compound 0.5 µM) of 1.09 and a relative viability ([5]; first compound 0.005 µM) of 0.831. The relative viability ([5]; first compound 0.01581 µM) was 0.839, the relative viability ([5]; first compound 0.05 µM) was 0.907 and the relative viability ([5]; first compound 0.1581 µM) was 0.66. The relative viability ([5]; first compound 0.5 µM) was 0.735, the relative viability ([6]; first compound 0.005 µM) was 0.856 and the relative viability ([6]; first compound 0.01581 µM) was 0.703. For the same molecule, the relative viability ([6]; first compound 0.05 µM) was 0.989, the relative viability ([6]; first compound 0.1581 µM) was 0.825 and the relative viability ([6]; first compound 0.5 µM) was 0.697. For the same molecule, the relative viability ([7]; first compound 0.005 µM) was 0.784, the relative viability ([7]; first compound 0.01581 µM) was 0.828 and the relative viability ([7]; first compound 0.05 µM) was 0.827. For the same molecule, the relative viability ([7]; first compound 0.1581 µM) was 0.886, the relative viability ([7]; first compound 0.5 µM) was 0.903 and the relative viability ([8]; first compound 0.005 µM) was 0.904. It also gave a relative viability ([8]; first compound 0.01581 µM) of 0.939, a relative viability ([8]; first compound 0.05 µM) of 0.92 and a relative viability ([8]; first compound 0.1581 µM) of 0.982. For the same molecule, the relative viability ([8]; first compound 0.5 µM) was 0.928, the relative viability ([9]; first compound 0.005 µM) was 0.905 and the relative viability ([9]; first compound 0.01581 µM) was 1.09. It also gave a relative viability ([9]; first compound 0.05 µM) of 0.937, a relative viability ([9]; first compound 0.5 µM) of 0.845 and a relative viability ([10]; first compound 0.005 µM) of 0.945. It also gave a relative viability ([10]; first compound 0.01581 µM) of 0.933, a relative viability ([10]; first compound 0.05 µM) of 0.999 and a relative viability ([10]; first compound 0.1581 µM) of 0.986. The relative viability ([10]; first compound 0.5 µM) was 0.963, the relative viability ([11]; first compound 0.005 µM) was 0.61 and the relative viability ([11]; first compound 0.01581 µM) was 0.76. The relative viability ([11]; first compound 0.05 µM) was 0.724, the relative viability ([11]; first compound 0.1581 µM) was 0.694 and the relative viability ([11]; first compound 0.5 µM) was 0.655.
